Measured values published in PMC3161630, “Targeted Chemotherapy Using a Cytotoxic Somatostatin Conjugate to Inhibit Tumor Growth and Metastasis in Nude Mice” (Clinical Medicine. Oncology, 2008).

Assays:
[1] = test system: neuroblastoma IMR32 cells; assay: Cell proliferation assay (MTT), IMR32; assay type: cell-based, human; details: table: mean ± SEM (n)
Description: (§1) The CHO-R1 and CHO-R2 cell lines, which were transfected with rat SSTR1 and SSTR2, respectively, were a kind gift from Dr. Agnes Schonbrunn (University of Texas—Houston, Houston, TX). Cells were cultured in F-12 medium containing 10% fetal calf serum. All other human tumor cell lines, including neuroblastoma IMR32, leukemia MOLT-4, pancreatic cancer CFPAC-1, prostate cancer PC-3 were purchased from ATCC (American Type Culture Collection, Manassas, VA). Human pancreatic carcinoid BON cells were a kind gift from Dr. Courtney Townsend (University of Texas—Galveston) and cultured as described previously.
(§2) The kits for the cell proliferation assay (MTT Assay) were purchased from Promega (Madison, WI) and the protocol was the same as described previously.

[2] = test system: pancreatic cancer CFPAC-1 cells; assay: Cell proliferation assay (MTT), CFPAC-1; assay type: cell-based, human; details: table: mean ± SEM (n)
Description: as §1, §2

[3] = test system: pancreatic carcinoid BON cells; assay: Cell proliferation assay (MTT), BON; assay type: cell-based, human; details: table: mean ± SEM (n)
Description: as §1, §2

[4] = test system: prostate cancer PC-3 cells; assay: Cell proliferation assay (MTT), PC-3; assay type: cell-based, human; details: table: mean ± SEM (n)
Description: as §1, §2

[5] = test system: leukemia MOLT-4 cells; assay: Cell proliferation assay (MTT), MOLT-4; assay type: cell-based, human; details: table: mean ± SEM (n)
Description: as §1, §2

[6] = test system: pancreatic carcinoid BON tumors; assay: Tumor growth, continuous drug-releasing pellets, BON tumors; assay type: in vivo, nude mice; details: 5 mg/pellet
Description: The cytotoxic CPT-SST conjugate JF-10-81 was synthesized as described previously. Continuous drug-releasing pellets containing JF-10-81 (5 mg/pellet) formulated to release drug for 60 days, were made by Innovative Research of America (Sarasota, FL).
Male nude mice, 5–7 weeks of age upon arrival, were purchased from the National Cancer Institute (NCI, Frederik, MD). The animal study was approved by the Tulane University Health Sciences Center Institutional Animal Care and Use Committee (IACUC).
The tumor tissue segments, grown from CFPAC-1, IMR32, MOLT-4 and BON cells injected into nude mice, were s.c. implanted into the flanks of nude mice as described previously. All the tumors were passaged from mouse to mouse. Tumor-carrying mice then were implanted with continuous drug-releasing pellets containing 5 mg of JF-10-81.
For treatments of pancreatic cancer CFPAC-1 tumors, mice were separated into 2 groups. Each mouse in the control group was implanted with a placebo pellet. Each mouse in the test group was implanted with a pellet containing JF-10-81 (5 mg/pellet) with a drug-release time of 60 days. Tumor volumes were measured and bodyweights were taken once a week. The treatment for all other tumors (BON, IMR32 and MOLT-4) was the same as above.

[7] = test system: non-transfected CHO cells; assay: Ligand-receptor binding assay, non-transfected CHO cells
Description: The assay was performed as a modification of the one previously described. The binding buffer contained Dulbecco’s Modified Eagle’s Medium (DMEM), 50 mM HEPES, 2 mM glutamine, 11.5 mM glucose, 1% bovine serum albumin (BSA) and 5 mM sodium pyruvate. The binding reactions took place in 1.5 ml eppendorf tubes containing 70–100 pM of [^125I]Tyr^11-SST-14 from PerkinElmer (Boston, MA 02118–2512), 1–1.5 × 10^5 cells and the tested SST analogs (10^−5 to 10^−13 M) for a total volume of 300 μl. These were incubated at room temperature for 50–60 minutes and centrifuged for 1–2 min at 9,000 g. The cell pellets were washed twice with phosphate-buffered saline (PBS) and counted for total radioactivity in a Titertek gamma counter (Huntsville, AL). The analyses were done using GraphPad Prism 4.0 (San Diego, […]). For further internalization, cells were then re-suspended and incubated in HBSS (pH4, acetic acid) on ice for 10 min, washed with cold PBS and then re-counted for radioactivity. Due to the radioactivity of membrane-bound receptors being released by the acid wash, the remaining radioactivity represents the internalized peptide.

Row | Structure (SMILES) | EC50 ([1]; Homo sapiens, IMR-32, MTT assay) | EC50 ([1]; MTT assay) | EC50 ([2]; Homo sapiens, CFPAC-1, MTT assay) | EC50 ([2]; MTT assay) | EC50 ([3]; Homo sapiens) | EC50 [3] | EC50 ([4]; Homo sapiens, PC-3, MTT assay) | EC50 ([4]; MTT assay) | EC50 ([5]; Homo sapiens, MOLT-4, MTT assay) | EC50 ([5]; MTT assay) | Inhibition (%) ([6]; 42 days, vs placebo) | percentage increase of tumor volumes ([6]; vs initial) | affinity to the non-transfected CHO cells [7]
1 | CC[C@@]1(O)C(=O)OCc2c1cc1n(c2=O)Cc2cc3ccccc3nc2-1 [CPT, camptothecin] | 2.8 nM | 2.82 ± 0.14 nM | 25.5 nM | 25.5 ± 5.6 nM | 171 nM | 171 ± 14.6 nM | 20.8 nM | 20.8 ± 2.82 nM | 2 nM | 1.96 ± 0.32 nM | 42% | 278% | –
2 | C[C@H](N)C(=O)NCC(=O)N[C@H]1CSSC[C@@H](C(=O)O)NC(=O)[C@H](CO)NC(=O)[C@H]([C@@H](C)O)NC(=O)[C@H](Cc2ccccc2)NC(=O)[C@H]([C@@H](C)O)NC(=O)[C@H](CCCCN)NC(=O)[C@H](Cc2c[nH]c3ccccc23)NC(=O)[C@H](Cc2ccccc2)NC(=O)[C@H](Cc2ccccc2)NC(=O)[C@H](CC(N)=O)NC(=O)[C@H](CCCCN)NC1=O [SST-14] | – | – | – | – | – | – | – | – | – | – | – | – | no affinity
